#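 Growth conditions: 96-well plates. Treatment: test compound, 48 hours, 5 concentrations. Analysis: linear interpolation between bracketing concentrations; unreached endpoints set to highest concentration. GI50: concentration for 50% inhibition of growth. TGI: total growth inhibition.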
# Key:
# Experiment in all cases: inhibition of tumour cell growth, NCI panel, 48 h
# A498 renal = system: A498 renal
# CCRF-CEM leukemia = system: CCRF-CEM leukemia
# K-562 leukemia = system: K-562 leukemia
# M14 melanoma = system: M14 melanoma
# MDA-MB-231 breast = system: MDA-MB-231 breast
# NCI-H226 lung = system: NCI-H226 lung
# OVCAR-8 ovarian = system: OVCAR-8 ovarian
# SK-MEL-2 melanoma = system: SK-MEL-2 melanoma
# SK-MEL-28 melanoma = system: SK-MEL-28 melanoma
# UO-31 renal = system: UO-31 renal
SMILES,GI50 (A498 renal),TGI (A498 renal),GI50 (CCRF-CEM leukemia),TGI (CCRF-CEM leukemia),GI50 (K-562 leukemia),TGI (K-562 leukemia),GI50 (M14 melanoma),TGI (M14 melanoma),GI50 (MDA-MB-231 breast),TGI (MDA-MB-231 breast),GI50 (NCI-H226 lung),TGI (NCI-H226 lung),GI50 (OVCAR-8 ovarian),TGI (OVCAR-8 ovarian),GI50 (SK-MEL-2 melanoma),TGI (SK-MEL-2 melanoma),GI50 (SK-MEL-28 melanoma),TGI (SK-MEL-28 melanoma),GI50 (UO-31 renal),TGI (UO-31 renal)
CCc1nc2cc(F)c(/C=C/C(=O)NO)cc2c(=O)n1CCc1ccccc1,0.149 µM,0.736 µM,0.4 µM,> 100 µM,0.303 µM,> 100 µM,0.355 µM,4.78 µM,0.376 µM,15.3 µM,0.371 µM,7.36 µM,0.287 µM,2.24 µM,0.293 µM,0.863 µM,0.381 µM,11.5 µM,0.2 µM,0.648 µM
CCCC(CCC)NCC(O)c1cc(-c2ccc(C(F)(F)F)cc2)nc(C(F)(F)F)c1 (stereo not drawn),1.35 µM,2.67 µM,2.46 µM,5.7 µM,1.93 µM,3.8 µM,1.75 µM,3.32 µM,1.53 µM,3.17 µM,1.59 µM,3.08 µM,1.83 µM,3.68 µM,2.27 µM,3.92 µM,1.92 µM,3.45 µM,1.58 µM,3.13 µM
CC/C=C\C[C@H](O)C/C=C1/C(=O)C=C[C@@H]1C/C=C\CCCC(=O)OC,4.91 µM,14.4 µM,0.368 µM,11.4 µM,0.732 µM,21.7 µM,1.32 µM,4.72 µM,2.94 µM,9.23 µM,2.17 µM,4.63 µM,2.61 µM,11.1 µM,1.84 µM,4.2 µM,1.81 µM,4.37 µM,1.75 µM,3.4 µM
CN1CCN(CCCNc2nc3ccc(Oc4ccc(NC(=O)Nc5cc(C(F)(F)F)ccc5F)cc4)cc3[nH]2)CC1,2.93 µM,> 18.9 µM,4.96 µM,10.8 µM,4.84 µM,11.1 µM,4.54 µM,8.61 µM,3.97 µM,7.65 µM,5.55 µM,16.8 µM,5.27 µM,13.5 µM,4.64 µM,8.66 µM,4.24 µM,7.73 µM,> 25 µM,> 25 µM
NS(=O)(=O)c1ccc(-c2ccc3c(NC(=O)C4CC4)n[nH]c3c2)cc1,> 25 µM,> 25 µM,> 25 µM,> 25 µM,> 25 µM,> 25 µM,> 25 µM,> 25 µM,> 25 µM,> 25 µM,> 25 µM,> 25 µM,> 25 µM,> 25 µM,> 25 µM,> 25 µM,> 25 µM,> 25 µM,> 25 µM,> 25 µM
Cc1ccc(NC(=O)c2cccc(C(C)(C)C#N)c2)cc1Nc1ccc2ncn(C)c(=O)c2c1,0.742 µM,4.08 µM,5.36 µM,> 100 µM,0.484 µM,> 79.3 µM,0.019 µM,,< 0.0239 µM,> 29 µM,5.62 µM,> 100 µM,4.96 µM,> 100 µM,0.0692 µM,8.69 µM,0.0192 µM,,0.475 µM,> 100 µM
CCOC(=O)C1CCN(S(=O)(=O)/N=C2/NC(=O)NC2=C(Cl)Cl)CC1,2.65 µM,12.1 µM,1.23 µM,3.16 µM,1.82 µM,5.99 µM,1.82 µM,3.6 µM,1.94 µM,3.54 µM,2.86 µM,9.94 µM,3.76 µM,19.9 µM,2.37 µM,7.5 µM,1.8 µM,3.51 µM,1.73 µM,4.02 µM
CN(C)CCNc1ccc(CO)c2oc3ccc(O)cc3c(=O)c12,,28.3 µM,,34.1 µM,,32.4 µM,,29.5 µM,,37.7 µM,,47.7 µM,,14.4 µM,,30.7 µM,,32 µM,,31.3 µM
COc1ccc2[nH]c3c4[nH]c5ccc(OC)cc5c4c4c(c3c2c1)C(=O)NC4=O,7.36 µM,> 25 µM,0.757 µM,> 25 µM,> 6.63 µM,> 25 µM,> 13.1 µM,> 25 µM,> 25 µM,> 25 µM,> 25 µM,> 25 µM,> 13.2 µM,> 25 µM,12.2 µM,> 25 µM,> 25 µM,> 25 µM,0.654 µM,> 25 µM
COc1cc(OC)c(C(=O)/C=C/c2cccc(C(F)(F)F)c2)c(OC)c1,1.4 µM,4.44 µM,1.09 µM,3.46 µM,1.26 µM,4.83 µM,1.06 µM,2.62 µM,1.76 µM,6.05 µM,1.16 µM,3.74 µM,1.41 µM,5.86 µM,1.22 µM,3.37 µM,1.51 µM,4.74 µM,1.43 µM,5.24 µM
COC(=O)Nc1nc2ccc(C3(c4ccc(F)cc4)OCCO3)cc2[nH]1,0.133 µM,2.87 µM,0.337 µM,> 100 µM,0.112 µM,> 100 µM,,,0.598 µM,99.5 µM,2.15 µM,> 94 µM,0.527 µM,> 100 µM,0.427 µM,> 100 µM,0.769 µM,> 100 µM,3.39 µM,> 100 µM
COc1ccc(C(=O)c2cc(C)c(OC)c(C)c2)c(OC)c1O,1.84 µM,6.03 µM,0.0323 µM,> 100 µM,0.0236 µM,> 100 µM,,,0.0587 µM,> 100 µM,2.71 µM,9.06 µM,0.0459 µM,> 100 µM,0.211 µM,> 100 µM,1.42 µM,> 100 µM,0.0695 µM,> 54 µM
COc1c2c(cc3c1OCO3)[C@]13C=C[C@H](OC)C[C@H]1N(C2)CC3O (stereo partly drawn),,> 100 µM,,> 100 µM,,,,> 100 µM,,> 100 µM,,> 100 µM,,> 100 µM,,> 100 µM,,> 100 µM,,> 100 µM

# Source: PubChem BioAssay (NCI)
